{"source": "patent US20020119141A1", "about": "“Biochemical methods that eliminate corneal scars, opacification and haze” (priority 1999, published 2002)", "test_system": "eyes of rabbits", "text": "Fifty-two (52) healthy rabbits of the New Zealand Cross variety (26 male, 26 female) weighing 1.5 kg to 2.5 kg were individually marked for identification and were housed individually in suspended cages. The animals received a commercially available pelleted rabbit feed on a daily basis, with tap water available ad libitum.\nThe animals were divided into thirteen groups of 4 animals each (2 males, 2 femals). Two animals in each group (1 male, 1 female) were selected for pretreatment fundus photography and fluorescein angiography.\nThe fundus photography was performed by restraining the animals and visualizing the optic nerve, retinal arcades and fundus with a KOWA® RC-3 Fundus Camera loaded with Kodak Gold 200 ASA film.\nThe fluorescein angiography involved a 1.5-ml injection of 2% sterile fluorescein solution via the marginal ear vein. Approximately 30 seconds post-injection the fluorescein was visualized upon localization of the optic nerve, retinal vessels and fundus.\nThe following day, each animal was anesthetized by intravenous administration of a combination of 34 mg/kg of ketamine hydrochloride and 5-mg/kg xylazine. The eyelids were retracted using a lid speculum, and the eyes were disinfected with an iodine-povidone wash.\nThe experimental treatments administered to each animal group were as follows:\nThe day following the injections (Day 1) the 26 animals, which were subjected to the fundus photography and fluorescein angiography, were observed using the same methods as for the pre-dose examination.\nThe eyes were then surgically removed and placed in a fixture solution of 2.5% glutaraldehyde with 0.1M phosphate buffered saline at pH 7.37. Alternatively, one randomly selected rabbit was euthanized by pentobarbital injection but then fixed by intracardiac injection of the gluteraldehyde solution into the left ventricle to determine the effect of the fixation procedure on the histology findings within the enucleated eyes.\nOn Day 7, the 13 female rabbits that had been previously photographed and angiography performed were subjected to same observations following the methods previously described.\nThe remaining 26 animals were euthanized as described above 7 days after dosing. The eyes were fixed in the same manner as those, which had been fixed on day 2. Also, one randomly selected rabbit was subjected to the same intracardiac gluteraldehyde fixation procedure described hereabove for the previously randomly selected animal.\nThe eyes of the animals treated in this example were examined grossly and microscopically for evidence of treatment-related toxicities.", "note": "Where two headings read alike, the source gives them in different places."}
{"substance": "Thimerosal [BSS + Thimerisol]", "values": [{"measurement": "treatment-related toxicity of the eyes (gross and microscopic examination)", "setting": "0.0075 mg thimerosal in BSS, day 2", "result": "free of toxicity"}, {"measurement": "treatment-related toxicity of the eyes (gross and microscopic examination)", "setting": "0.0075 mg thimerosal in BSS, day 7, listed as BSS plus thimerosal", "result": "significant toxic effects"}, {"measurement": "treatment-related toxicity of the eyes (gross and microscopic examination)", "setting": "0.0075 mg thimerosal in BSS, day 7, listed as BSS+thimerosal", "result": "breakdown of the blood retinal barrier"}, {"measurement": "treatment-related toxicity of the eyes (gross and microscopic examination)", "setting": "0.025 mg thimerosal in BSS, day 2 and 7 post dose", "result": "severe treatment-related toxic effects"}, {"measurement": "toxic effects in the eyes of rabbits (conclusion)", "setting": "intravitreal injection, at the dosages tested", "result": "do cause toxic effects"}]}
